The values that follow come from patent US20230203043A1, “NOVEL IMIDAZOPYRAZINE DERIVATIVES” (Hoffmann-La Roche Inc., priority 2020, published 2023).

Usually IC90 stands for the concentration at which the effect reaches the 90% level.

Where a name gives a salt, the structure may show the parent alone.

In the first test the test system is Acinetobacter baumannii ATCC17961. The test is described as follows: Antimicrobial susceptibility testing: 90% growth inhibitory concentration (IC90) determination in Iso-Sensitest broth, OD600 growth. Type of test: cell-based. The settings on record: Acinetobacter baumannii, ATCC17961, 16 h, read-out: A. baumannii ATCC 17961 IC90 (uM), strain ATCC 17961, OD600 growth over 16 h. An outline of the steps:
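Compounds were twofold serially diluted in DMSO across 10 points (e.g. 50 to 0.097 μM final) and inoculated at ~5×10^(5) CFU/ml. Plates incubated at 35±2° C, with OD600 read every 20 minutes over 16 h. IC90 was derived from growth inhibition during logarithmic growth.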
As to `O=C(CN1CCN(C(=O)c2ccc(Nc3nccn4c(-c5cn(CC(F)F)nc5C(F)(F)F)cnc34)cc2Cl)CC1)N1CCNCC1` [Example 608, 2-(4-(2-chloro-4-((3-(1-(2,2-difluoroethyl)-3-(trifluoromethyl)-1H-pyrazol-4-yl)imidazo[1,2-a]pyrazin-8-yl)amino)benzoyl)piperazin-1-yl)-1-(piperazin-1-yl) ethan-1-one formate], the IC90 was found to be 0.936 µM. In the case of `N#CCn1cc(-c2cnc3c(Nc4ccc(C(=O)NOCCN)c(Cl)c4)nccn23)c(C(F)(F)F)n1` [Example 201, N-(2-aminoethoxy)-2-chloro-4-[[3-[1-(cyanomethyl)-3-(trifluoromethyl)pyrazol-4-yl]imidazo[1,2-a]pyrazin-8-yl]amino]benzamide formate], the IC90 is 0.486 µM. On the same count and under the same terms, to `NCCCNC(=O)CN1CCN(C(=O)c2ccc(Nc3nccn4c(-c5cn(CC(F)F)nc5C(F)(F)F)cnc34)cc2Cl)CC1` [Example 606, N-(3-aminopropyl)-2-(4-(2-chloro-4-((3-(1-(2,2-difluoroethyl)-3-(trifluoromethyl)-1H-pyrazol-4-yl)imidazo[1,2-a]pyrazin-8-yl)amino)benzoyl)piperazin-1-yl)acetamide formate] belongs 0.303 µM; to `O=C(NCC1(O)CNC1)N1CCN(C(=O)c2ccc(Nc3nccn4c(-c5cn(CC(F)F)nc5C(F)(F)F)cnc34)cc2Cl)CC1` [Example 580, 4-(2-chloro-4-((3-(1-(2,2-difluoroethyl)-3-(trifluoromethyl)-1H-pyrazol-4-yl)imidazo[1,2-a]pyrazin-8-yl)amino)benzoyl)-N-((3-hydroxyazetidin-3-yl)methyl)piperazine-1-carboxamide formate], 0.322 µM; to `CCc1cc(Nc2nccn3c(-c4cn(CC#N)nc4-c4ccccc4)cnc23)ccc1C(=O)NCCOCCN` [Example 781, N-[2-(2-aminoethoxy)ethyl]-4-[[3-[1-(cyanomethyl)-3-phenyl-pyrazol-4-yl]imidazo[1,2-a]pyrazin-8-yl]amino]-2-ethyl-benzamide formate], 1.09 µM.

Take `N#CCn1cc(-c2cnc3c(Nc4ccc(C(=O)N5CCN(CC(=O)NC6CNC6)CC5)c(Cl)c4)nccn23)c(C(F)(F)F)n1` [Example 604, N-(azetidin-3-yl)-2-(4-(2-chloro-4-((3-(1-(cyanomethyl)-3-(trifluoromethyl)-1H-pyrazol-4-yl)imidazo[1,2-a]pyrazin-8-yl)amino)benzoyl)piperazin-1-yl)acetamide formate]: the 90% effect concentration (IC90) was 0.602 µM.

On to `Cc1cc(Nc2nccn3c(-c4cn(C)nc4C(F)(F)F)cnc23)ccc1C(=O)N1CCN(C(=O)[C@H]2C[C@H](O)CN2)CC1` [Example 476, formic acid; [4-[(2R,4S)-4-hydroxypyrrolidine-2-carbonyl]piperazin-1-yl]-[2-methyl-4-[[3-[1-methyl-3-(trifluoromethyl)pyrazol-4-yl]imidazo[1,2-a]pyrazin-8-yl]amino]phenyl]methanone], for which the 90% effect concentration (IC90) stood at 2.01 µM. The same measure, in the same setting: the value for `CCc1cc(Nc2nccn3c(-c4cn(CC(F)F)nc4C(F)(F)F)cnc23)ccc1C(=O)NC1CNC1` [Example 565, N-(azetidin-3-yl)-4-((3-(1-(2,2-difluoroethyl)-3-(trifluoromethyl)-1H-pyrazol-4-yl)imidazo[1,2-a]pyrazin-8-yl)amino)-2-ethylbenzamide formate] was 0.188 µM; that for `Cc1cc(Nc2nccn3c(-c4cn(CC#N)nc4C(F)(F)F)cnc23)ccc1C(=O)N1CCN(C(=O)[C@@H]2CCNC[C@@H]2O)CC1` [Example 421, formic acid; 2-[4-[8-[4-[4-[(3R,4R)-3-hydroxypiperidine-4-carbonyl]piperazine-1-carbonyl]-3-methylanilino]imidazo[1,2-a]pyrazin-3-yl]-3-(trifluoromethyl)pyrazol-1-yl]acetonitrile] was 0.629 µM.

Staying with this test, now noted: Acinetobacter baumannii, ATCC17961, 16 h, strain ATCC 17961, OD600 growth over 16 h, read-out: A. baumannii ATCC 17961 IC90.
Consider `CCc1cc(Nc2nccn3c(-c4cn(CCF)nc4C(F)F)cnc23)ccc1C(=O)N1CCN(C(=O)[C@@H]2C[C@@H](O)CN2)CC1` [Example 795, (4-(4-((3-(3-(difluoromethyl)-1-(2-fluoroethyl)-1H-pyrazol-4-yl)imidazo[1,2-a]pyrazin-8-yl)amino)-2-ethylbenzoyl)piperazin-1-yl)((2S,4R)-4-hydroxypyrrolidin-2-yl)methanone], for which the IC90 is 2.23 µM. On the same count and under the same terms, the value for `CCc1cc(Nc2nccn3c(-c4c[nH]nc4C(F)(F)F)cnc23)ccc1C(=O)NCCNC(=O)N1CCC(N)CC1` [Example 568, 4-amino-N-(2-(2-ethyl-4-((3-(3-(trifluoromethyl)-1H-pyrazol-4-yl)imidazo[1,2-a]pyrazin-8-yl)amino)benzamido)ethyl) piperidine-1-carboxamide formate] was 0.46 µM; that for `CNC(=O)c1ccc(Nc2nccn3c(-c4cn(Cc5ccn(CC#N)n5)nc4C(F)(F)F)cnc23)cc1Cl` [Example 590, 2-chloro-4-((3-(1-((1-(cyanomethyl)-1H-pyrazol-3-yl)methyl)-3-(trifluoromethyl)-1H-pyrazol-4-yl)imidazo [1,2-a]pyrazin-8-yl)amino)-N-methylbenzamide] was 0.375 µM. Still for that read-out and setting: the value for `CNC(=O)c1ccc(Nc2nccn3c(-c4cn(CCC#N)nc4C(F)(F)F)cnc23)cc1Cl` [Example 358, 2-chloro-4-[[3-[1-(2-cyanoethyl)-3-(trifluoromethyl)pyrazol-4-yl]imidazo[1,2-a]pyrazin-8-yl]amino]-N-methylbenzamide] was 0.189 µM; that for `CCc1cc(Nc2nccn3c(-c4cn(CC(F)F)nc4C(F)(F)F)cnc23)ccc1C(=O)NCCNC(=O)[C@H]1C[C@@H](N)C1` [Example 624, cis-N-(2-((1s,3s)-3-aminocyclobutane-1-carboxamido)ethyl)-4-((3-(1-(2,2-difluoroethyl)-3-(trifluoromethyl)-1H-pyrazol-4-yl)imidazo[1,2-a]pyrazin-8-yl)amino)-2-ethylbenzamide formate] was 0.19 µM. Regarding `CCc1cc(Nc2nccn3c(-c4cn(CC(F)F)nc4C(F)F)cnc23)ccc1C(=O)N[C@H]1C[C@@H](N)C1` [Example 539, N-((1s,3s)-3-aminocyclobutyl)-4-((3-(1-(2,2-difluoroethyl)-3-(difluoromethyl)-1H-pyrazol-4-yl)imidazo[1,2-a]pyrazin-8-yl)amino)-2-ethylbenzamide], the IC90 worked out at 0.461 µM. Consider `O=C(c1ccc(Nc2nccn3c(-c4cn(CC(F)F)nc4C(F)(F)F)cnc23)cc1Cl)N1CCN(C(=O)[C@H]2[C@@H]3CNC[C@@H]32)CC1` [Example 519, (4-((1R,5S,6r)-3-azabicyclo[3.1.0]hexane-6-carbonyl)piperazin-1-yl)(2-chloro-4-((3-(1-(2,2-difluoroethyl)-3-(trifluoromethyl)-1H-pyrazol-4-yl)imidazo[1,2-a]pyrazin-8-yl)amino)phenyl) methanone formate], for which the IC90 worked out at 0.147 µM. On the same count and under the same terms, to `NCCNC(=O)CNC(=O)c1ccc(Nc2nccn3c(-c4cn(CCF)nc4C(F)(F)F)cnc23)cc1Cl` [Example 8, N-[2-(2-aminoethylamino)-2-oxoethyl]-2-chloro-4-[[3-[1-(2-fluoroethyl)-3-(trifluoromethyl)pyrazol-4-yl]imidazo[1,2-a]pyrazin-8-yl]amino]benzamide formate] belongs 0.484 µM; to `CCc1cc(Nc2nccn3c(-c4c[nH]nc4C(F)(F)F)cnc23)ccc1C(=O)N[C@H](C)CNC(=O)[C@@H]1C[C@@H](O)CN1` [Example 782, (2S,4R)-N-((R)-2-(2-ethyl-4-((3-(3-(trifluoromethyl)-1H-pyrazol-4-yl)imidazo[1,2-a]pyrazin-8-yl)amino)benzamido)propyl)-4-hydroxypyrrolidine-2-carboxamide], 1.15 µM.

Turning to `NCCCCNC(=O)c1ccc(Nc2nccn3c(-c4c[nH]nc4C(F)(F)F)cnc23)cc1Cl` [Example 362, N-(4-aminobutyl)-2-chloro-4-[[3-[3-(trifluoromethyl)-1H-pyrazol-4-yl]imidazo[1,2-a]pyrazin-8-yl]amino]benzamide], the IC90 came to 0.35 µM. Still for that read-out and setting: the value for `CCc1cc(Nc2nccn3c(-c4cn(C5CCCC5)nc4C(F)(F)F)cnc23)ccc1C(=O)NCCOCCN` [Example 26, N-[2-(2-aminoethoxy)ethyl]-4-[[3-[1-cyclopentyl-3-(trifluoromethyl)pyrazol-4-yl]imidazo[1,2-a]pyrazin-8-yl]amino]-2-ethylbenzamide hydrochloride] was 0.282 µM. On the same count and under the same terms, to `CNC(=O)c1ccc(Nc2nccn3c(-c4cn(C5CNC5)nc4C(F)(F)F)cnc23)cc1Cl` [Example 348, 4-[[3-[1-(azetidin-3-yl)-3-(trifluoromethyl)pyrazol-4-yl]imidazo[1,2-a]pyrazin-8-yl]amino]-2-chloro-N-methylbenzamide hydrochloride] belongs 1.55 µM.

Staying with this test, now noted: strain ATCC 17961, OD600 growth over 16 h, read-out: A. baumannii ATCC 17961 IC90.
Consider `N[C@@H]1CN[C@@H](C(=O)N2CCN(C(=O)c3ccc(Nc4nccn5c(-c6c[nH]nc6C(F)(F)F)cnc45)cc3Cl)CC2)C1` [Example 245, [4-[(2R,4S)-4-aminopyrrolidine-2-carbonyl]piperazin-1-yl]-[2-chloro-4-[[3-[3-(trifluoromethyl-1H-pyrazol-4-yl]imidazo[1,2-a]pyrazin-8-yl]amino]phenyl]methanone formate], for which the IC90 was 0.45 µM. Same read-out and setting: to `Cc1cc(Nc2nccn3c(-c4cn(CC#N)nc4C(F)(F)F)cnc23)cc(F)c1C(=O)N[C@H](C)CNC(=O)[C@H]1C[C@@H](N)C1` [Example 709, N-((R)-1-((1s,3S)-3-aminocyclobutane-1-carboxamido)propan-2-yl)-4-((3-(1-(cyanomethyl)-3-(trifluoromethyl)-1H-pyrazol-4-yl)imidazo[1,2-a]pyrazin-8-yl)amino)-2-fluoro-6-methylbenzamide formate] belongs 0.404 µM; to `CCc1cc(Nc2nccn3c(-c4c(C(F)(F)F)n[nH]c4C)cnc23)ccc1C(=O)NCCOCCN` [Example 24, N-[2-(2-aminoethoxy)ethyl]-2-ethyl-4-[[3-[5-methyl-3-(trifluoromethyl)-1H-pyrazol-4-yl]imidazo[1,2-a]pyrazin-8-yl]amino] benzamide formate], 0.523 µM.
